According to ChEMBL document CHEMBL3826902, “Synthesis and cytotoxic activities of semisynthetic zearalenone analogues” (Bioorg Med Chem Lett, 2016):
Calls of active or inactive are those of the source. The rule behind the calls is not given here.

Legend:
KB [1] = experiment: Cytotoxicity against human KB cells assessed as reduction in cell viability by resazurin microplate assay; type: functional, cell-based
MCF7 [2] = experiment: Cytotoxicity against human MCF7 cells assessed as reduction in cell viability by resazurin microplate assay; type: functional, cell-based
Vero [3] = experiment: Cytotoxicity against African green monkey Vero cells assessed as reduction in cell viability by green fluorescent protein-based assay; parameters: species or system Chlorocebus sabaeus
MCF7 [4] = experiment: Cytotoxicity against human MCF7 cells assessed as reduction in cell viability at >50 ug/ml by resazurin microplate assay; type: functional, cell-based
KB [5] = experiment: Cytotoxicity against human KB cells assessed as reduction in cell viability at >50 ug/ml by resazurin microplate assay; type: functional, cell-based
Vero [6] = experiment: Cytotoxicity against African green monkey Vero cells assessed as reduction in cell viability at >50 ug/ml by green fluorescent protein-based assay; conditions: Chlorocebus sabaeus
[7] = Homo sapiens, KB, read-out: IC50
[8] = Chlorocebus sabaeus, Vero, read-out: IC50
[9] = Homo sapiens, MCF7, read-out: IC50

Row | Structure (SMILES) | IC50 (KB [1]; [7]) [µM] | IC50 (MCF7 [2]; mcf7) | IC50 (Vero [3]; [8]) [µM] | Activity (MCF7 [4]) | IC50 (KB [1]; kb) | Activity (KB [5]) | IC50 (Vero [3]; vero) | Activity (Vero [6]) | IC50 (MCF7 [2]; [9]) [µM]
1 | CC(=O)Oc1cc(O)c2c(c1)/C=C/CCCC(=O)CCC[C@H](C)OC2=O | 52.9 | Not Active | 134 | inactive |  |  |  |  | 
2 | C[C@H]1CCC[C@@H](O)CCCCCc2cc(O)cc(O)c2C(=O)O1 [TALERANOL] |  | Not Active | 22.6 | inactive | Not Active | inactive |  |  | 
3 | CC(=O)Oc1cc(O)c2c(c1)/C=C/CCC[C@H](O)CCC[C@H](C)OC2=O | 48.9 | Not Active | 13.6 | inactive |  |  |  |  | 
4 | COc1cc(OC)c2c(c1Cl)/C=C/CCCC(=O)CCC[C@H](C)OC2=O |  | Not Active |  | inactive | Not Active | inactive | Not Active | Non-toxic | 
5 | COc1cc(O)c2c(c1)/C=C/CCC[C@@H](O)CCC[C@H](C)OC2=O | 104 |  | 53.1 |  |  |  |  |  | 93.3
6 | Cc1c2ccncc2c(C)c2c1[nH]c1ccccc12 [ELLIPTECINE] | 8.28 |  | 4.26 |  |  |  |  |  | 
7 | C[C@H]1CCC[C@H](O)CCC/C=C/c2cc(O)cc(O)c2C(=O)O1 | 100 | Not Active | 60.3 | inactive |  |  |  |  | 
8 | CCOc1cc(O)c2c(c1)/C=C/CCC[C@H](O)CCC[C@H](C)OC2=O | 60.1 |  | 45.3 |  |  |  |  |  | 70.2
9 | COc1cc(O)c2c(c1)/C=C/CCC[C@H](O)CCC[C@H](C)OC2=O | 56 | Not Active |  | inactive |  |  | Not Active | Non-toxic | 
10 | CCC(=O)Oc1cc2c(c(OC(=O)CC)c1)C(=O)O[C@@H](C)CCCC(=O)CCC/C=C/2 |  | Not Active |  | inactive | Not Active | inactive | Not Active | Non-toxic | 
11 | CCC(=O)Oc1cc(O)c2c(c1)/C=C/CCC[C@H](O)CCC[C@H](C)OC2=O | 33.4 | Not Active | 35 | inactive |  |  |  |  | 
12 | COc1cc2c(c(OC)c1)C(=O)O[C@@H](C)CCC[C@H](O)CCC/C=C/2 |  | Not Active |  | inactive | Not Active | inactive | Not Active | Non-toxic | 
13 | COc1cc(O)c2c(c1)CCCCCC(=O)CCC[C@H](C)OC2=O |  | Not Active |  | inactive | Not Active | inactive | Not Active | Non-toxic | 
14 | CCOc1cc(O)c2c(c1)/C=C/CCC[C@@H](O)CCC[C@H](C)OC2=O | 66.9 |  |  |  |  |  | Not Active | Non-toxic | 61.8
15 | COc1cc2c(c(OC)c1)C(=O)O[C@@H](C)CCC[C@@H](O)CCC/C=C/2 |  | Not Active |  | inactive | Not Active | inactive | Not Active | Non-toxic | 
16 | CC(=O)Oc1cc2c(c(OC(C)=O)c1)C(=O)O[C@@H](C)CCCC(=O)CCC/C=C/2 | 59.7 | Not Active | 48 | inactive |  |  |  |  | 
17 | COc1cccc2c1C(=O)c1c(O)c3c(c(O)c1C2=O)C[C@@](O)(C(=O)CO)C[C@@H]3O[C@H]1C[C@H](N)[C@H](O)[C@H](C)O1 [DOXORUBICIN] | 1.06 |  |  |  |  |  |  |  | 
18 | COc1cc2c(c(OC)c1)C(=O)O[C@@H](C)CCC[C@@H](O)CCCCC2 |  | Not Active |  | inactive | Not Active | inactive | Not Active | Non-toxic | 

Row | Structure (SMILES) | IC50 (KB [1]; [7]) [µM] | IC50 (MCF7 [2]; mcf7) | IC50 (Vero [3]; [8]) [µM] | Activity (MCF7 [4]) | IC50 (KB [1]; kb) | Activity (KB [5]) | IC50 (Vero [3]; vero) | Activity (Vero [6]) | IC50 (MCF7 [2]; [9]) [µM]
19 | CCC(=O)Oc1cc(O)c2c(c1)/C=C/CCCC(=O)CCC[C@H](C)OC2=O | 52.4 | Not Active | 44.1 | inactive |  |  |  |  | 
20 | C[C@H]1CCC[C@H](O)CCCCCc2cc(O)cc(O)c2C(=O)O1 [ZERANOL] |  | Not Active | 50 | inactive | Not Active | inactive |  |  | 
21 | CCCCCCCCOc1cc(O)c2c(c1)/C=C/CCC[C@H](O)CCC[C@H](C)OC2=O | 82.2 |  | 73.4 |  |  |  |  |  | 93.6
22 | COc1cc2c(c(OC)c1)C(=O)O[C@@H](C)CCCC(=O)CCCCC2 |  | Not Active |  | inactive | Not Active | inactive | Not Active | Non-toxic | 
23 | COc1cc2c(c(OC)c1)C(=O)O[C@@H](C)CCCC(=O)CCC/C=C/2 |  | Not Active |  | inactive | Not Active | inactive | Not Active | Non-toxic | 
24 | COc1cc(O)c2c(c1)CCCCC[C@@H](O)CCC[C@H](C)OC2=O |  | Not Active |  | inactive | Not Active | inactive | Not Active | Non-toxic | 
25 | CCC(=O)Oc1cc(O)c2c(c1)/C=C/CCC[C@@H](O)CCC[C@H](C)OC2=O | 85.7 | Not Active | 129 | inactive |  |  |  |  | 
26 | C[C@H]1CCCC(=O)CCC/C=C/c2c(Cl)c(O)cc(O)c2C(=O)O1 | 89.9 | Not Active | 140 | inactive |  |  |  |  | 
27 | COc1cc(O)c2c(c1)CCCCC[C@H](O)CCC[C@H](C)OC2=O |  | Not Active | 148 | inactive | Not Active | inactive |  |  | 
28 | CCCOc1cc(O)c2c(c1)/C=C/CCC[C@H](O)CCC[C@H](C)OC2=O | 83.4 |  | 53.3 |  |  |  |  |  | 81.9
29 | COc1cc(O)c2c(c1Cl)/C=C/CCCC(=O)CCC[C@H](C)OC2=O | 108 | Not Active | 51.4 | inactive |  |  |  |  | 
30 | C[C@H]1CCCC(=O)CCCCCc2cc(O)cc(O)c2C(=O)O1 [ZEARALANONE] |  | Not Active | 151 | inactive | Not Active | inactive |  |  | 
31 | COc1cc(O)c2c(c1)/C=C/CCCC(=O)CCC[C@H](C)OC2=O |  | Not Active |  | inactive | Not Active | inactive | Not Active | Non-toxic | 
32 | C[C@H]1CCC[C@@H](O)CCC/C=C/c2cc(O)cc(O)c2C(=O)O1 |  | Not Active | 25.4 | inactive | Not Active | inactive |  |  | 
33 | CCCOc1cc(O)c2c(c1)/C=C/CCC[C@@H](O)CCC[C@H](C)OC2=O | 35.7 |  | 26.2 |  |  |  |  |  | 43.8
34 | CC/C(=C(\c1ccccc1)c1ccc(OCCN(C)C)cc1)c1ccccc1 [TAMOXIFEN] |  |  |  |  |  |  |  |  | 19.3
35 | CC(=O)Oc1cc(O)c2c(c1)/C=C/CCC[C@@H](O)CCC[C@H](C)OC2=O | 51.6 |  | 136 |  |  |  |  |  | 89
36 | CCCCCCCCOc1cc(O)c2c(c1)/C=C/CCC[C@@H](O)CCC[C@H](C)OC2=O | 40.9 |  | 24.2 |  |  |  |  |  | 75.2
